Laboratory results as given in patent US4943561A, “Gastrin releasing peptide antagonist” (Merck & Co., Inc., priority 1988, dated 1990).
Residues, ends and D or L forms follow the SMILES beside them. *: point of attachment. NH(2-Me-nonan-4R-yl) = CCCCC[C@H](CC(C)C)N*; NHCH(iBu)2 = CC(C)CC(CC(C)C)N*; X1 = CCCCC[C@@H](CC(C)C)N*; X2 = CCCC=C[C@H](CC(C)C)N*; Boc = CC(C)(C)OC(=O)*; Piv = CC(C)(C)C(=O)*; Ms = CS(=O)(=O)*

What was measured:
GRP receptor = target: T1, GRP receptor (Mus musculus, UniProt P21729); experiment: Procedure A: Binding Inhibition Studies (competition with [3H-Phe15]GRP15-27); design: species or system murine; details: Swiss 3T3 cells; 3 nM [3H-Phe15]GRP15-27; 60 minutes at 15° C.
T1 construct: endogenous in cells; host or cells: Swiss 3T3 fibroblasts (intact monolayers)
Method: (§1) The activity of the peptide derivatives of the present invention as GRP antagonists was determined in competitive binding assays with a radio-active GRP derivative. Swiss 3T3 fibroblasts were used in these tests as the source of GRP receptor. Because these cells respond to GRP binding with a rapid increase in DNA synthesis, compounds that bind to the GRP receptor can also be tested for their ability to stimulate DNA synthesis. New DNA synthesis is one of the early steps in cell division and is widely accepted as a measure of mitogenicity or cell growth. […] Compounds which block DNA synthesis are mitogenic antagonists.
Swiss 3T3 cells, obtained from Dr. K. Brown (Institute of Animal Physiology, Cambridge, U.K.), were grown to confluency in Costar 12 -well plates containing DMEM (Gibco) supplemented with 10% fetal bovine serum, 2 mM glutamine and 1% penicillin-streptomycin. The cells were washed twice with binding buffer [1:1 DMEM:Waymouths MB752/1 medium, plus 1 mg/ml BSA (Fraction V, Calbiochem)]. The antagonist was dissolved in 10 mM HCl, and diluted to the appropriate concentration in binding buffer. The antagonist was then added to the cells, followed by [^3 H Phe^15 ]GRP15-27 at a final concentration of 3 nM. After 60 minutes incubation at 15° C., the supernatant liquid was removed and the cell monolayer rinsed four times with washing buffer (150 mM NaCl, 20 mM Na2 HPO4, 5mM KCl, 1.8 mM KH2 PO4, 1 mg/ml BSA) The cells were then lysed with 1 ml/well of lysis buffer (1% Triton X-100, 0.1% BSA), and the solution was aspirated into scintillation vials for counting. Each data point was collected in triplicate.

Swiss 3T3 cells = experiment: Procedure C: Mitogenesis Inhibition (GRP-stimulated 3H-thymidine uptake); type: cell-based, murine; details: GRP plus antagonist, 48 hours
Method: as §1, with “antagonists. […] Swiss 3T3 cells were grown in monolayer culture in 24 -well plates (Costar) in serum free DMEM for 48 hours, at which time the GRP or a GRP homologue. The antagonist and 23 nM ^3 H-thymidine were added. After an additional 48 hours, the cell monolayer was washed twice with PBS, and the cells were then removed with 1 ml 10x trypsin containing 5 mM EDTA. The cells were harvested with a Skatron filter apparatus, and the filters counted in a scintillation counter.” for “antagonists.”

T1 sequence (P21729 whole entry): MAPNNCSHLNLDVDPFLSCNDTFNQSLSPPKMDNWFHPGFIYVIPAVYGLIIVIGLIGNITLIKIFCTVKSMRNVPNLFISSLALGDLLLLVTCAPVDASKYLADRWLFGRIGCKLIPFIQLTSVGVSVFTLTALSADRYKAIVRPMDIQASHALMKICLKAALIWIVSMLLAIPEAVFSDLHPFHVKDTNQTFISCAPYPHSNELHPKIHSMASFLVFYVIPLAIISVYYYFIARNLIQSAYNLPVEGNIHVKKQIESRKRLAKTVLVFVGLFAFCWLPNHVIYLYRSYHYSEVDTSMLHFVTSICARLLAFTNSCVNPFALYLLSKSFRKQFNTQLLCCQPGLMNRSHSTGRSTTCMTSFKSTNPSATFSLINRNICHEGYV

CCCCC[C@H](CC(C)C)NC(=O)[C@H](Cc1c[nH]cn1)NC(=O)CNC(=O)[C@@H](NC(=O)[C@H](C)NC(=O)[C@H](Cc1c[nH]c2ccccc12)NC(=O)[C@H](Cc1c[nH]cn1)NC(=O)OC(C)(C)C)C(C)C [5(R)] (Boc-HWAVGH-{NH(2-Me-nonan-4R-yl)})
IC50 (GRP receptor): 2 nM

CC(=O)N[C@@H](Cc1c[nH]cn1)C(=O)N[C@@H](Cc1c[nH]c2ccccc12)C(=O)N[C@@H](C)C(=O)N[C@H](C(=O)NCC(=O)N[C@@H](Cc1c[nH]cn1)C(=O)NC(CC(C)C)CC(C)C)C(C)C [Example 6] (Ac-HWAVGH-{NHCH(iBu)2})
IC50 (GRP receptor): 2 nM

CCCCC[C@@H](CC(C)C)NC(=O)[C@H](Cc1c[nH]cn1)NC(=O)CNC(=O)[C@@H](NC(=O)[C@H](C)NC(=O)[C@H](Cc1c[nH]c2ccccc12)NC(=O)[C@H](Cc1c[nH]cn1)NC(C)=O)C(C)C [1(S)] (Ac-HWAVGH-X1)
IC50 (GRP receptor): 17 nM

CCCCC[C@H](CC(C)C)NC(=O)[C@H](Cc1c[nH]cn1)NC(=O)CNC(=O)[C@@H](NC(=O)[C@H](C)NC(=O)[C@H](Cc1c[nH]c2ccccc12)NC(=O)[C@H](Cc1c[nH]cn1)NS(C)(=O)=O)C(C)C [3(R)] (Ms-HWAVGH-{NH(2-Me-nonan-4R-yl)})
IC50 (GRP receptor): 15 nM

CCCC=C[C@H](CC(C)C)NC(=O)[C@H](Cc1c[nH]cn1)NC(=O)CNC(=O)[C@@H](NC(=O)[C@H](C)NC(=O)[C@H](Cc1c[nH]c2ccccc12)NC(=O)[C@H](Cc1c[nH]cn1)NC(C)=O)C(C)C [2(S)] (Ac-HWAVGH-X2)
IC50 (GRP receptor): 11 nM

CCCCC[C@H](CC(C)C)NC(=O)[C@H](Cc1c[nH]cn1)NC(=O)CNC(=O)[C@@H](NC(=O)[C@H](C)NC(=O)[C@H](Cc1c[nH]c2ccccc12)NC(=O)[C@H](Cc1c[nH]cn1)NC(C)=O)C(C)C [1(R)] (Ac-HWAVGH-{NH(2-Me-nonan-4R-yl)})
IC50 (GRP receptor): 2 nM

CCCCC[C@H](CC(C)C)NC(=O)[C@H](Cc1c[nH]cn1)NC(=O)CNC(=O)[C@@H](NC(=O)[C@H](C)NC(=O)[C@H](Cc1c[nH]c2ccccc12)NC(=O)[C@H](Cc1c[nH]cn1)NC(=O)C(C)(C)C)C(C)C [4(R)] (Piv-HWAVGH-{NH(2-Me-nonan-4R-yl)})
IC50 (GRP receptor): 3 nM | IC50 (Swiss 3T3 cells): 2 nM
